Bridge positions count the residues as written; N and C are the ends. Square brackets hold non-standard residues; d marks the D form. Peptide text beside a SMILES is read from it. Hyp = O=C(O)[C@@H]1C[C@@H](O)CN1
Target: N-type or omega HVA neuronal calcium channels; calcium currents in N1E-115 neuroblastoma cells (Mus musculus, UniProt O55017)
Assay type: cell-based

Sequence of N-type or omega HVA neuronal calcium channels; calcium currents in N1E-115 neuroblastoma cells (O55017 whole entry): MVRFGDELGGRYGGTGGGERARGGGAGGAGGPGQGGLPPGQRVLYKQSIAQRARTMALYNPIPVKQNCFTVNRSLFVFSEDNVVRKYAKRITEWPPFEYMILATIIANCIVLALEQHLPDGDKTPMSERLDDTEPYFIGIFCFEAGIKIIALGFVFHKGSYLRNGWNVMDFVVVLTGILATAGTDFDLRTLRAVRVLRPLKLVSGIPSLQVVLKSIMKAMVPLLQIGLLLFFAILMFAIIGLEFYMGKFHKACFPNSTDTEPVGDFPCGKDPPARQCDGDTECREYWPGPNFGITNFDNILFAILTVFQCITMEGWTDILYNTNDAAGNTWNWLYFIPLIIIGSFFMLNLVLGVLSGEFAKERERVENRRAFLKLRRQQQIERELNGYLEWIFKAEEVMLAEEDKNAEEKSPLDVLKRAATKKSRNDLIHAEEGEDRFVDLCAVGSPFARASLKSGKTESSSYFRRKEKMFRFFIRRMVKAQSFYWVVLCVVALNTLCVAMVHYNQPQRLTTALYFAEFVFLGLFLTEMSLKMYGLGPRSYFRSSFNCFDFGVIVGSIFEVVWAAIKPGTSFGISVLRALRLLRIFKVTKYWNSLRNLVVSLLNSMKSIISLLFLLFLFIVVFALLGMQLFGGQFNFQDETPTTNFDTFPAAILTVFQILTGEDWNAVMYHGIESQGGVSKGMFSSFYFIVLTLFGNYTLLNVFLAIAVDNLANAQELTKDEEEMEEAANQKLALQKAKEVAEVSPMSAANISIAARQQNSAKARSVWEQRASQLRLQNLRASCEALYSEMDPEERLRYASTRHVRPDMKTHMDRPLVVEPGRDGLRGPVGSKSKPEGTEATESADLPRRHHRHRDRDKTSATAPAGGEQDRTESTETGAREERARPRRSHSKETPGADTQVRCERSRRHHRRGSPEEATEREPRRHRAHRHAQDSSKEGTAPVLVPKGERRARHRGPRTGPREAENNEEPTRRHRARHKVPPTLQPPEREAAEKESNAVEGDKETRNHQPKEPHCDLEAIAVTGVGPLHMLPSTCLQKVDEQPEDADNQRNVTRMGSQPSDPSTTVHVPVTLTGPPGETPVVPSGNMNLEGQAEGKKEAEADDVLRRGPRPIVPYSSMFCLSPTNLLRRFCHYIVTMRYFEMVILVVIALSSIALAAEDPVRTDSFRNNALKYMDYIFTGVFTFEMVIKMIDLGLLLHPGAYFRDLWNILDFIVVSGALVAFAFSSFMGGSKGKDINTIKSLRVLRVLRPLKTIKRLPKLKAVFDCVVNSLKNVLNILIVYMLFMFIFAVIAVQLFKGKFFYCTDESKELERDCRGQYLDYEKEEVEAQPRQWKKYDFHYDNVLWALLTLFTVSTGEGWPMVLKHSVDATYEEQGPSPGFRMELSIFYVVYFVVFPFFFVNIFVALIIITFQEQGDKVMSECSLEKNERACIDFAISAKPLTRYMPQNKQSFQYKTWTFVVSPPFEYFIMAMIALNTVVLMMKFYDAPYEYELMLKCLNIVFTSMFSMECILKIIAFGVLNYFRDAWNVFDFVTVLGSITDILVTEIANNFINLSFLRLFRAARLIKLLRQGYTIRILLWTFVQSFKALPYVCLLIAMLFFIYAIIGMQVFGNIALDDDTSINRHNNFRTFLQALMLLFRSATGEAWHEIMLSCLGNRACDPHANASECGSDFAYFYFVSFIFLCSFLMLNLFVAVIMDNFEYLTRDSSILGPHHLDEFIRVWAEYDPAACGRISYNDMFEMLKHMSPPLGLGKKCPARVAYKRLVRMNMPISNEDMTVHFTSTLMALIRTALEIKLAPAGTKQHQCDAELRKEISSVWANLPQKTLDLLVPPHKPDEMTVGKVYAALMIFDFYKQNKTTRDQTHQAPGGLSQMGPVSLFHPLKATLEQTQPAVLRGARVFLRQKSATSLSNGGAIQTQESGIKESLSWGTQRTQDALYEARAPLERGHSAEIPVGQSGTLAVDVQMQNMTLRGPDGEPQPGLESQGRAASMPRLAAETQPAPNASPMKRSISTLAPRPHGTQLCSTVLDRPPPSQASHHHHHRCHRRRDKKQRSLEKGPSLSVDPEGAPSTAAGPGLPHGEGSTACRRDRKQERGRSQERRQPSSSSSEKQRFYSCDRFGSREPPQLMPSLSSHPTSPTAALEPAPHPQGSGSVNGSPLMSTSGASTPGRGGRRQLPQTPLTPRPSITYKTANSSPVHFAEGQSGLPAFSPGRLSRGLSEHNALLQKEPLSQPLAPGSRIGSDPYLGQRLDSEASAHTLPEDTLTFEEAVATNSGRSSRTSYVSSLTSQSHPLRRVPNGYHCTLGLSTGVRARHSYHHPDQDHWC
Sequence of N-type or omega HVA neuronal calcium channels; calcium currents in N1E-115 neuroblastoma cells (O08532 25-956 partner limits assumed): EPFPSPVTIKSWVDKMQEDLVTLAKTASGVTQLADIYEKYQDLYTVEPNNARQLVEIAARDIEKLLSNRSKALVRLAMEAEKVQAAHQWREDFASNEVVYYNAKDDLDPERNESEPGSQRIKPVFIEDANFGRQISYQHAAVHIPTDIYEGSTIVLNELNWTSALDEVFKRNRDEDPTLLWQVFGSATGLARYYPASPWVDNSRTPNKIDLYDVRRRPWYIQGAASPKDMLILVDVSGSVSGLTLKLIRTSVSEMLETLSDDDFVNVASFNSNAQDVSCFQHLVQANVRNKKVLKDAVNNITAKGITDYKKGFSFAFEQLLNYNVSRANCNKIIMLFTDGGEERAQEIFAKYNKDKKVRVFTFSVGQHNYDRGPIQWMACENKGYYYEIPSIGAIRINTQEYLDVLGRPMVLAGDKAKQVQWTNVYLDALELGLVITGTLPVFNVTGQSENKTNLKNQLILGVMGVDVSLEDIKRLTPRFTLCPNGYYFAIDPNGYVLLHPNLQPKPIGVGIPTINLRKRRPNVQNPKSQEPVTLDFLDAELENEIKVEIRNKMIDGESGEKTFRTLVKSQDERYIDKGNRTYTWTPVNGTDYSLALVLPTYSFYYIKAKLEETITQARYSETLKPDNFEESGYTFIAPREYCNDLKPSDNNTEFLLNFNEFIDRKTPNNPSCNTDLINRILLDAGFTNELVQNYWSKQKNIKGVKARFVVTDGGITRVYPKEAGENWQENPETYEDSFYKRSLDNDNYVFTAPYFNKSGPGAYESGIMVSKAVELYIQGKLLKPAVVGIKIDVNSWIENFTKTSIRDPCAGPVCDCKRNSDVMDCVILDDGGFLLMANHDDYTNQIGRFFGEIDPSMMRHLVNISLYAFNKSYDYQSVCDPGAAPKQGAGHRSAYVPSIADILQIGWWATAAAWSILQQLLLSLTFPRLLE
Sequence of N-type or omega HVA neuronal calcium channels; calcium currents in N1E-115 neuroblastoma cells (O08532 957-1103 partner limits assumed): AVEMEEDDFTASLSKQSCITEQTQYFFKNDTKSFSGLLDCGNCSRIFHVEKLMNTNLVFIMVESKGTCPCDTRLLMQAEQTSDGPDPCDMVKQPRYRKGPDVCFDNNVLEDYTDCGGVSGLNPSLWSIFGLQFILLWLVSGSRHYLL

## CC[C@H](C)[C@@H]1NC(=O)[C@H](CO)NC(=O)[C@H]([C@@H](C)O)NC(=O)[C@H](C(C)C)NC(=O)CNC(=O)[C@@H]2CSSC[C@@H]3NC(=O)[C@H](CCCNC(=N)N)NC(=O)CNC(=O)[C@H](CSSC[C@H](N)C(=O)N[C@@H](CCCNC(=N)N)C(=O)N[C@@H](CO)C(=O)N[C@@H](CO)C(=O)NCC(=O)N[C@@H](CO)C(=O)N4C[C@H](O)C[C@H]4C(=O)N2)NC(=O)[C@H](CSSC[C@@H](C(=O)N[C@H](C(N)=O)[C@@H](C)O)NC(=O)[C@H](CCCCN)NC(=O)CNC(=O)[C@H](CCCNC(=N)N)NC(=O)[C@H](Cc2ccc(O)cc2)NC3=O)NC1=O [SNX-157] (H-CRSSGS[Hyp]CGVTSICCGRCYRGKCT-NH2; disulfide 1-15, 8-18, 14-23)
  IC50, inhibition of calcium currents in N1E-115 neuroblastoma cells: > 20 μM
